Test results as given in publication PMC5843908, “Detection of PRMT1 inhibitors with stopped flow fluorescence” (Signal Transduction and Targeted Therapy, 2018).

Tests used:
[1] = target: PRMT1 (Homo sapiens, UniProt Q99873); assay: Stopped flow fluorescence assay of PRMT1 inhibition ([PRMT1] 0.2 µM, [SAM] 3.5 µM, [H4FL] 0.4 µM); type: biochemical;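 further: Stopped-flow traces of fluorescent H4FL peptide quenched on binding PRMT1 and restored on release, recorded 900 s, averaged over repeated drives and fit to a double-exponential model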
[2] = tested on: CARM1; set-up: method as in PMID 24564570; details: cited from earlier work
[3] = tested on: PRMT6; set-up: method as in PMID 24564570; details: cited from earlier work
[4] = tested on: PRMT5; set-up: method as in PMID 24564570; details: cited from earlier work

Sequence of PRMT1 (Q99873 29-371): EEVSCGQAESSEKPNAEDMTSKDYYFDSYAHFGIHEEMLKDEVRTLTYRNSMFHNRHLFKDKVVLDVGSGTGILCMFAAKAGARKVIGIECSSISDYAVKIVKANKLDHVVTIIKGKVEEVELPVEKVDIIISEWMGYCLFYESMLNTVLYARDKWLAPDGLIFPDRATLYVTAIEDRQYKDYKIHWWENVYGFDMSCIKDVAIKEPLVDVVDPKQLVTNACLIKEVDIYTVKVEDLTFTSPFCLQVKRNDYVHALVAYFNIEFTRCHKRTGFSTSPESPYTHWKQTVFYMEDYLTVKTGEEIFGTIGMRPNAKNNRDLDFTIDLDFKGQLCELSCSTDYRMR

mechanism of inhibition suggested by Phase I/Phase II pattern [1]: substrate-competitive inhibitor | -b·k2 (slope of Phase II) ([1]; [DB75] 2.5 µM): 0.0008427 ± 1.61e-06 s⁻¹ | a (amplitude, Phase I) ([1]; [DB75] 2.5 µM): 0.1608 ± 3.86E-04 | a·k1 (slope of Phase I) ([1]; [DB75] 2.5 µM): 0.00951 ± 4.83e-05 s⁻¹ | b (amplitude, Phase II) ([1]; [DB75] 2.5 µM): -0.203 ± 1.66E-04 | k1 (rate constant, Phase I) ([1]; [DB75] 2.5 µM): 0.05913 ± 2.65E-04 s^-1 | k2 (rate constant, Phase II) ([1]; [DB75] 2.5 µM): 0.004151 ± 7.18E-06 s^-1 | -b·k2 (slope of Phase II) ([1]; [DB75] 5 µM): 0.0005995 ± 1.19e-06 s⁻¹ | a (amplitude, Phase I) ([1]; [DB75] 5 µM): 0.1114 ± 3.10E-04 | a·k1 (slope of Phase I) ([1]; [DB75] 5 µM): 0.00741 ± 4.25e-05 s⁻¹ | b (amplitude, Phase II) ([1]; [DB75] 5 µM): -0.14 ± 1.20E-04 | k1 (rate constant, Phase I) ([1]; [DB75] 5 µM): 0.06653 ± 3.34E-04 s^-1 | k2 (rate constant, Phase II) ([1]; [DB75] 5 µM): 0.004282 ± 7.68E-06 s^-1 | -b·k2 (slope of Phase II) ([1]; [DB75] 7.5 µM): 0.0005125 ± 1.42e-06 s⁻¹ | a (amplitude, Phase I) ([1]; [DB75] 7.5 µM): 0.1285 ± 3.57E-04 | a·k1 (slope of Phase I) ([1]; [DB75] 7.5 µM): 0.00616 ± 3.66e-05 s⁻¹ | b (amplitude, Phase II) ([1]; [DB75] 7.5 µM): -0.1789 ± 1.33E-04 | k1 (rate constant, Phase I) ([1]; [DB75] 7.5 µM): 0.04791 ± 2.52E-04 s^-1 | k2 (rate constant, Phase II) ([1]; [DB75] 7.5 µM): 0.002865 ± 7.66E-06 s^-1 | -b·k2 (slope of Phase II) ([1]; [DB75] 10 µM): 0.0003506 ± 2.59e-06 s⁻¹ | a (amplitude, Phase I) ([1]; [DB75] 10 µM): 0.06466 ± 3.90E-04 | a·k1 (slope of Phase I) ([1]; [DB75] 10 µM): 0.0024 ± 3.23e-05 s⁻¹ | b (amplitude, Phase II) ([1]; [DB75] 10 µM): -0.07628 ± 3.14E-04 | k1 (rate constant, Phase I) ([1]; [DB75] 10 µM): 0.03706 ± 4.47E-04 s^-1 | k2 (rate constant, Phase II) ([1]; [DB75] 10 µM): 0.004596 ± 2.82E-05 s^-1 | -b·k2 (slope of Phase II) ([1]; [DB75] 20 µM): 0.00011 ± 4.39e-06 s⁻¹ | a (amplitude, Phase I) ([1]; [DB75] 20 µM): 0.02855 ± 5.16E-04 | a·k1 (slope of Phase I) ([1]; [DB75] 20 µM): 0.000854 ± 2.84e-05 s⁻¹ | b (amplitude, Phase II) ([1]; [DB75] 20 µM): -0.01837 ± 5.38E-04 | k1 (rate constant, Phase I) ([1]; [DB75] 20 µM): 0.02992 ± 8.36E-04 s^-1 | k2 (rate constant, Phase II) ([1]; [DB75] 20 µM): 0.005985 ± 1.62E-04 s^-1 | -b·k2 (slope of Phase II) ([1]; [DB75] 40 µM): 0 s⁻¹ | a (amplitude, Phase I) ([1]; [DB75] 40 µM): 0.009937 ± 5.73E-04 | a·k1 (slope of Phase I) ([1]; [DB75] 40 µM): 0.00133 ± 0.000128 s⁻¹ | k1 (rate constant, Phase I) ([1]; [DB75] 40 µM): 0.1335 ± 1.03E-02 s^-1 | inhibition of Phase II ([1]; [DB75] above 10 µM): almost fully inhibited
SMILES: N=C(N)c1ccc(-c2ccc(-c3ccc(C(=N)N)cc3)o2)cc1 [DB75, furamidine]
inhibition selectivity for PRMT1 over CARM1 [2]: 42 fold | inhibition selectivity for PRMT1 over PRMT6 [3]: 30 fold | inhibition selectivity for PRMT1 over PRMT5 [4]: more than 15 fold
